Test results published in patent US8877351B2, “Organometallic complex, and lighting apparatus, and electronic device using the organometallic complex” (Semiconductor Energy Laboratory Co., Ltd., priority 2008, dated 2014).

Experiment: solubility determination in organic solvents
Format: physicochemical
From the text: It is confirmed that Ir(dbq-tBuP)2(acac) can be dissolved in each of 2-ethoxyethanol, 1,4-dioxane, chloroform, and toluene.

- solubility (in chloroform): ≥ 1.2 mg/mL
- solubility (in toluene): ≥ 1.2 mg/mL
- Solubility x (solvent: Chloroform): 1.2 ≦ x g/L
- Solubility x (solvent: Ethanol): x < 0.6 g/L
- Solubility x (solvent: Isopropyl alcohol): x < 0.6 g/L
- Solubility x (solvent: Toluene): 1.2 ≦ x g/L
SMILES: CC(=O)C=C(C)[O][Ir]([c]1cc(C(C)(C)C)ccc1-c1cnc2c3ccccc3c3ccccc3c2n1)[c]1cc(C(C)(C)C)ccc1-c1cnc2c3ccccc3c3ccccc3c2n1 [Ir(dbq-tBuP)2(acac), (acetylacetonato)bis{2-(4-tert-butylphenyl)-dibenzo[f,h]quinoxalinato}iridium(III)]
